Data on 14 molecules can be found in PubChem BioAssay (NCI).

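Grown in 96-well plates, cells were treated for 48 hours with each compound at five concentrations. Insufficient inhibition: endpoint recorded as highest concentration tested. Abbreviation: GI50, concentration required for 50% inhibition of growth. TGI denotes the concentration required for complete inhibition of growth.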 Where only a bound is given, the exact number is not on record here.

Test in all cases: NCI anticancer screen, dose series, 48 h
The test system of experiment [1] is HOP-92 NSCLC.
Experiment [2] deals with SN12C renal.
The subject of experiment [3] is SNB-75 CNS.
The subject of experiment [4] is SK-MEL-5 melanoma.
The test system of experiment [5] is HCT-116 colon.
Experiment [6] deals with HOP-62 NSCLC.
Experiment [7] has as its system ACHN renal.
The subject of experiment [8] is HT29 colon.
Experiment [9] concerns SF-539 CNS.

In the case of `CC(=O)/C=C/c1ccc(C)cc1`, the TGI in experiment [1], in [2], in [3], in experiment [4], in experiment [5] and in experiment [6] was over 100 µM throughout. Further, the TGI in experiment [7], in experiment [8] and in [9] was over 100 µM in each case.
As for `O=c1c2ccccc2nc(-c2cccc(Cl)c2)n1NCC1(O)OCC(O)C(O)C1O` (stereo not drawn), the TGI in [2], in [5], in experiment [7], in [8] and in experiment [9] was over 100 µM each time.
For `O=C(/C=C/c1ccccc1Cl)c1ccc(Cl)cc1Cl`, the TGI was determined as 39 µM in [1]; 32.2 µM in [2]; 37.4 µM in experiment [3]; 28.6 µM in [4]; 20.5 µM in experiment [5]; 42.1 µM in experiment [6]. The figures for the TGI in [7], in [8] and in [9] were 32 µM, 28 µM and 38.5 µM, respectively.
Regarding `Cc1ccc(Oc2ccc([N+](=O)[O-])cc2[N+](=O)[O-])c(C)c1`, the TGI was over 100 µM in experiment [2]; over 100 µM in experiment [3]; 50 µM in experiment [4]; over 100 µM in experiment [5]; over 100 µM in experiment [6]; over 100 µM in [7]. The TGI in experiment [8] was 59.3 µM; in experiment [9] it was over 100 µM.
With `Clc1ccc(Nc2ccnc(NCCCNc3ccnc4cc(Cl)ccc34)n2)cc1`, the GI50 was 1.16 µM in [1]; 1230 nM in [3]; 1.4 µM in [4]; 1.42 µM in experiment [5]; 1.48 µM in experiment [6]; 1.57 µM in experiment [7]. In addition, the GI50 in experiment [8] was 1.29 µM; in experiment [9] it was 1.67 µM. Also, the TGI in experiment [1] was 2.85 µM; in experiment [3], 2.5 µM; in [4], 2.75 µM; in [5] it was 3.1 µM; in [6], 2.94 µM; in experiment [7], 3.04 µM. Further, the TGI turned out to be 2.83 µM in [8] and 3.19 µM in experiment [9].
Consider `COc1cc2c(cn1)[nH]c1ccccc12`, for which the TGI in [1], in experiment [2], in [3], in experiment [4], in experiment [5] and in experiment [6] was over 100 µM each time. Also, the TGI in [7], in [8] and in experiment [9] was over 100 µM in each case.
Turning to `C1=Nc2ccccc2C=Nc2ccccc2C=Nc2ccccc2C=Nc2ccccc21.[Cl-].[Pt+2]`, the GI50 in experiment [1] was 19.3 µM; in experiment [2], 28.4 µM; in experiment [4], 18.8 µM; in experiment [5], 25.9 µM; in experiment [6] it was 15.1 µM; in experiment [7] it was 19 µM. Moreover, the GI50 was 22.3 µM in experiment [8] and 23.1 µM in [9]. For the same molecule, the TGI in [1] is 48.7 µM; in [2], over 100 µM; in experiment [4] it was 48.3 µM; in [5] it was over 100 µM; in experiment [6], 45.6 µM; in [7], 49 µM. For the same molecule, the TGI in experiment [8] is 52.5 µM; in experiment [9], 54.1 µM.
Regarding `Cc1c2c(cc3c(=O)ccn(CCN(C)C)c13)c(=O)ccn2CCN(C)C`, the TGI in experiment [1] turned out to be 31.3 µM; in experiment [2] it was 33.3 µM; in [3], 25.6 µM; in experiment [4], 34.4 µM; in experiment [5] it was 19.5 µM; in experiment [6], 29.1 µM. Moreover, the TGI in [7] was 26.3 µM; in [9], 29.7 µM.
Regarding `Cc1cccc(C)c1NC(=O)CCc1n[nH]c(=S)o1`, the TGI in experiment [1] was over 100 µM; in experiment [2] it was over 100 µM; in experiment [3] it was over 100 µM; in experiment [4] it was over 100 µM; in experiment [5], 36.7 µM; in experiment [6], over 100 µM. For the same molecule, the TGI in [7], in experiment [8] and in [9] was over 100 µM throughout.
In the case of `Cc1ccc2c(c1)CNc1ccc(C)cc1CN2`, the TGI in experiment [1], in experiment [2], in experiment [3], in experiment [4], in [5] and in experiment [6] was over 100 µM in each case. Further, the TGI in experiment [7], in experiment [8] and in experiment [9] was over 100 µM each time.
Regarding `COc1ccc(-c2c(N)[n+]([O-])c3ccccc3[n+]2[O-])cc1OC`, the TGI in experiment [1], in experiment [2], in experiment [3], in experiment [4], in [5] and in experiment [6] was over 100 µM in each case. Further, the TGI in experiment [7], in experiment [8] and in experiment [9] was over 100 µM in each case.
Regarding `COc1cc(Nc2nc3ccc(C(F)(F)F)cc3nc2-c2ccccc2)cc(OC)c1OC`, the TGI was 6.17 µM in experiment [1]; over 100 µM in experiment [2]; over 100 µM in experiment [3]; 59.4 µM in experiment [4]; over 100 µM in experiment [6]; over 100 µM in experiment [7]. In addition, the TGI in experiment [8] is 5.31 µM; in experiment [9], over 100 µM.
On to `NNC(=O)/C(NC(=O)c1ccccc1)=C(\N)c1ccc(Cl)cc1`, for which the TGI in [1], in experiment [2], in experiment [3], in experiment [4], in experiment [5] and in experiment [6] was over 100 µM in each case. For the same molecule, the TGI in [7], in experiment [8] and in [9] was over 100 µM throughout.
Regarding `N#CC1C2CCC3(CC2CCN1C(=O)c1ccccc1)OCCO3` (stereo not drawn), the TGI in experiment [1], in experiment [2], in [3], in experiment [4], in [5] and in [6] was over 100 µM throughout. Further, the TGI in experiment [7], in [8] and in experiment [9] was over 100 µM throughout.
